Experimental data as given in patent US8575106B2, “Cosmetic uses of modified stressed yeast extracts and related compositions” (Avon Products, Inc., priority 2009, dated 2013).

Experiments:
[1] = tested on: B16 melanoma cells; assay: Calcium influx into B16 melanoma cells (Fluo-4 NW Calcium Assay, Thapsigargin-stimulated); type: cell-based, mouse; details: 100 μM 2-APB, area under curve of calcium influx peak vs vehicle control
Experimental: Modified yeast peptide fractions comprising a zinc-complexed peptide comprising SEQ ID NO:1 were tested in vitro for the ability to inhibit calcium influx into pigment-producing cells. An experiment was designed to measure intracellular calcium in B16 melanoma cells using Fluo-4 NW Calcium Assay Kits (Invitrogen) as per manufacturer's instructions. B16 mouse melanoma cell lines (ATCC, cat. #: CRL-6475) were grown in 96-well tissue culture treated dishes in growth medium. Prior to calcium treatment, growth medium from the B16 cell cultures was removed and 100 μL of the dye loading solution was added quickly to each well of a 96-well plate. Plates were incubated at 37° C. for 30 minutes, then at room temperature for an additional 30 minutes. Dye buffer was removed and plates were washed once with 1×PBS and replaced with an assay buffer that contains calcium (and was formed according to the manufacturer's directions) along with a test compound. […]
Fluorescence was measured using a micro-plate reader at excitation/emission wavelengths of 485 nm/530 nm, respectively. The reader was set to read florescence every 30 seconds for a period of 5 minutes. […] The fluorescence micro-plate reader was set to take fluorescence measurements every 30 seconds for a period of 30 minutes, again at excitation/emission wavelengths of 485 nm/530 nm, respectively. […]

[2] = tested on: B16 mouse melanoma cell lines; assay: Melanin synthesis in B16 cells, normalized to cell viability (MTT); type: cell-based; details: 100 μM 2-APB, 7 days, relative to control
Experimental: Next, the effects of 2-APB and modified peptide fractions having a zinc-complexed peptide comprising SEQ ID NO:1 on melanin synthesis were examined in B16 cells. B16 mouse melanoma cell lines (ATCC, cat. #: CRL-6475) were grown in 96-well tissue culture treated dishes (Falcon) and treated with a test compound to determine its ability to modulate pigment formation (melanin synthesis). Specifically, cells were exposed to 100 μM 2-APB or modified yeast peptide fractions comprising different concentrations of zinc-complexed peptide comprising SEQ ID NO:1, including 1% and 0.1% zinc-complexed peptide, for seven (7) days. Following the treatment period, the level of melanin synthesized was quantified using a Packard micro-plate reader at 540 nm.
After quantifying the amount of melanin synthesized, cell viability was determined using the MTT conversion method. […] After melanin synthesis quantification, the cultures were exposed to MTT dye solution with a concentration of 1 mg/ml for three hours. […] MTT dye uptake and conversion by viable cells was determined by measuring the extracted formazan at 570 nm using a Packard micro-plate reader.
After normalizing to cell viability, total pigmentation then was calculated, and expressed as a percent activity of control. […]

## NCCOB(c1ccccc1)c1ccccc1 [2-APB, 2-aminoethyl diphenylborate]
[1]
  inhibition of calcium entry into the cells: 86%
[2]
  inhibition of melanin synthesis: 77%
